# Experimental data taken from patent US10131744B2, “Antimicrobial polyamide compositions and mastitis treatment” (priority 2013, dated 2018).
# Details: in vivo, iv
# From the text: The present invention thus provides novel and non-obvious antimicrobial polyamide compositions, and methods of using same for treating and preventing mastitis in non-human animals. The methods generally comprise administering to an infected animal an effective amount of the veterinary composition to eliminate or cure, completely or substantially, mastitis-causing pathogen(s).
substance,measurement,value
"poly (4,4′-trimethylene dipiperidine bispropanoic acid-co-1,3-diamino propane)",maximum tolerated dose,~40 mg/kg
